Laboratory results published in patent US7157468B2, “Pyrazole derivatives” (Pfizer Inc., priority 2002, dated 2007).
pIC50: −log10 of the molar value.

Target: T1, HIV-1 reverse transcriptase (Human immunodeficiency virus type 1 group M subtype B, UniProt P04585)
T1 construct: purified recombinant HIV-1 reverse transcriptase (RT, EC, 2.7.7.49); made in house; host or cells: Escherichia coli
Assay: Inhibition of HIV-1 Reverse Transcriptase Enzyme
Type: biochemical
Conditions: purified recombinant HIV-1 RT expressed in Escherichia Coli; [3H]-SPA or [3H]-flashplate enzyme assay; 5% final DMSO
Source text: The activity of the compounds of the invention as reverse transcriptase inhibitors may be measured using the following assay.
Inhibition of HIV-1 Reverse Transcriptase Enzyme
Using purified recombinant HIV-1 reverse transcriptase (RT, EC, 2.7.7.49) obtained by expression in Escherichia Coli, a 96-well plate assay system is established for assaying a large number of samples using either the Poly(rA)-oligo(dT) Reverse Transcriptase [3H]-SPA enzyme assay system (Amersham NK9020) or the [3H]-flashplate enzyme assay system (NEN-SMP 103) and following the manufacturer's recommendations. The compounds are dissolved in 100% DMSO and diluted with the appropriate buffer to a 5% final DMSO concentration. The inhibitory activity is expressed in percent inhibition relative to DMSO control.

Row | Structure (SMILES) | pIC50
1 | Cc1n[nH]c(CC(=O)N2CCc3ccccc3C2)c1Oc1cc(Cl)cc(Cl)c1 [Example 8, 2-[4-(3,5-Dichloro-phenoxy)-5-methyl-2H-pyrazol-3-yl]-1-(3,4-dihydro-1H-isoquinolin-2-yl)-ethanone] | 8.00
2 | Cc1n[nH]c(CC(=O)N2CCc3ccccc3C2)c1Oc1cc(Cl)cc(C#N)c1 [Example 17] | 7.19
